Reference: patent US11083714B2, “Selective anti-cancer agent effective for prevention and treatment” (Molecular International Research, Inc., priority 2018, dated 2021)
Entries after “also recorded” stand apart in the source; their conditions may differ. Where two headings read alike, the source gives them in different places.

Tests used:
[1] = system: MIA PaCa, PANC-1, AsPc, BxPc; experiment: Growth inhibition, gemcitabine alone or plus de-ethylflavopereirine; assay type: cell-based; settings: four pancreatic cancer cell lines
[2] = assay type: in vivo; settings: for time of death of one mouse: male, scid/scid, beige/beige, 48 hr
Description: A study with synthetic compounds 13-7-2 (flavopereirine) and 13-9-1 (de-ethylflavopereirine) was conducted to compare the toxicity of the two compounds in animals. The compounds were dissolved in phosphate buffered saline for administration. Both compounds were injected IP in male immunodeficient (homozygous recessive scid/scid, beige/beige) mice.
Compound 13-7-2 was injected at a dose of 100 mg/kg, 150 mg/kg, and 200 mg/kg in mice divided in groups of two. […] One mouse injected with 150 mg/kg died at 6 hr whereas one mouse injected with 200 mg/kg dose died at 24 hr. One mouse injected with 100 mg/kg dose died at 48 hr.
Compound 13-9-1 was injected at a dose of 100 mg/kg, 150 mg/kg, and 200 mg/kg in mice divided in groups of two.

[3] = system: RPWE-1; experiment: Cell Proliferation (anti-cancer), RPWE-1; assay type: cell-based, human
Description: (§1) The primary goal of synthesizing de-ethylflavopereirine (compound 13-9-1) was to generate a different compound that still retains the anti-cancer cell activity of flavopereirine (compound 13-7-2). Comparison of the effects of the two compounds on proliferation of a variety of cancer cells confirmed that this goal was achieved. For example, the effect of de-ethylflavopereirine on two human breast cancer cell lines and two human prostate cancer cell lines were analyzed.

[4] = mouse, in vivo
Description: To estimate the maximum tolerated dose of compounds 13-7-2 and 13-9-1 in mice, both compounds were dissolved in PBS and given to SCID mice by oral gavage.
Compound 13-7-2 was administered at a dose of 100 mg/kg, 150 mg/kg, or 200 mg/kg. Each dose group consisted of three mice.
Compound 13-9-1 was administered at a dose of 100 mg/kg, 150 mg/kg, or 200 mg/kg by oral gavage (three mice per dose group).
In a separate dose finding/toxicity test with compound 13-9-1, three mice received escalating doses of 50 mg/kg/day for 3 days, 100 mg/kg/day for 7 days, 200 mg/kg/day for 7 days, and 300 mg/kg/day for 3 days, given by oral gavage. Mice were monitored closely for toxic signs.

[5] = system: LnCap; experiment: Cell Proliferation (anti-cancer), LnCap; assay type: cell-based, human
Description: as §1

[6] = Homo sapiens, after any period of treatment, read-out: Minimum Dose (IC50) needed to decrease growth 50% or greater versus control

SMILES	response of the cell lines to the drug alone [1]	mice that died after IP injection ([2]; all doses tested (100, 150, 200 mg/kg)) [%]	time of death of one mouse ([2]; mouse, in vivo, ip, 100 mg/kg) [h]	time of death of one mouse ([2]; mouse, in vivo, ip, 150 mg/kg) [h]	time of death of one mouse ([2]; mouse, in vivo, ip, 200 mg/kg) [h]	adverse effects observed ([2]; mouse, in vivo, ip, 100 mg/kg)	Growth Inhibition [3]	IC50 [3, 6] [µM]	tolerated dose, oral administration ([4]; SCID)	adverse effects observed ([4]; SCID, po, 100 mg/kg, 48 hr)	deaths ([4]; SCID, po, 150 mg/kg, 48 hr)	deaths ([4]; SCID, po, 200 mg/kg, 48 hr)	signs of distress ([4]; po, 200 mg/kg)	Growth Inhibition [5]	IC50 [5, 6] [µM]
Nc1ccn([C@@H]2O[C@H](CO)[C@@H](O)C2(F)F)c(=O)n1 [gemcitabine]	all four of the pancreatic cancer cell lines are resistant; also recorded: some resistance														
CCc1ccc2c3[nH]c4ccccc4c3cc[n+]2c1 [Compound 13-7-2, flavopereirine]		50	48	6	24	swollen abdomen	Yes	10	up to 100 mg/kg	No signs of distress were observed in the 100 mg/kg group of mice with the exception of bradycardia 15 min after the administration of the compound in one mouse	two mice died 15 min after administration of the compound and one mouse died 48 hr after administration of the compound	One mouse from this group died 24 hr after the administration of the compound	two mice exhibited signs of distress which included rapid breathing, bradycardia, shut eyes, and lethargy	Yes	10
